Experimental findings from ChEMBL document CHEMBL1145305, “beta-Secretase inhibitors: modification at the P4 position and improvement of inhibitory activity in cultured cells” (Bioorg Med Chem Lett, 2006) are described below.

For assay [1], the target named is T1, Beta-secretase 1 (Homo sapiens, UniProt P56817). Nature of the assay: Inhibition of human recombinant BACE1 at 2 uM.
Assay [2] deals with T1, Beta-secretase 1. The assay can be described thus: Inhibition of human recombinant BACE1 at 0.2 uM.
Assay [3] has as its target T1, Beta-secretase 1. The assay can be described thus: Inhibition of BACE1 expressed in HEK293 cells at 100 uM. The class given is cell-based.
The target in assay [4] is T1, Beta-secretase 1. The assay can be described thus: Inhibition of human recombinant BACE1.

T1 sequence (P56817 whole entry): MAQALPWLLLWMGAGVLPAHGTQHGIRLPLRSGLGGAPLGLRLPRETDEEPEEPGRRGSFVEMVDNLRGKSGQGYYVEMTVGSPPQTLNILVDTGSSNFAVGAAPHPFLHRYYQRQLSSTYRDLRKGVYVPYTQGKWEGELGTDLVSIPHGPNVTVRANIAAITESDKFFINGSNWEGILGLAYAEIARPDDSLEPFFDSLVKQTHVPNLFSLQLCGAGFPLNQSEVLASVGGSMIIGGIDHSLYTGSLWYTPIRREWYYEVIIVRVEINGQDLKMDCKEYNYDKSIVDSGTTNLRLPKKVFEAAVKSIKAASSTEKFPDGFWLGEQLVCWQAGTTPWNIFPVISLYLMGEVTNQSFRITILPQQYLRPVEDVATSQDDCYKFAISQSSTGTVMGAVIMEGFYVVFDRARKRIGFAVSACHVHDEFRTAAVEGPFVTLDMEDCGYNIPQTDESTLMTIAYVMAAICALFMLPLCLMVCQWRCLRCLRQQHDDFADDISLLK

Usually inhibition stands for the percentage by which the read-out fell short of the control. As to `CC(C)C[C@H](NC(=O)[C@@H](NC(=O)[C@@H](N)CNC(=O)c1cc(O)cc(O)c1)C(C)C)C(=O)N[C@@H](Cc1ccccc1)[C@@H](O)C(=O)Nc1cccc(C(=O)O)c1`, the inhibition was 94% on Beta-secretase 1 [1], 60% at Beta-secretase 1 [2] and 69% against Beta-secretase 1 [3].
The like results for `CC(C)C[C@H](NC(=O)[C@@H](NC(=O)[C@@H](N)CNC(=O)c1nc(O)nc(O)c1F)C(C)C)C(=O)N[C@@H](Cc1ccccc1)[C@@H](O)C(=O)Nc1cccc(C(=O)O)c1` were, in that order, 99%, 82% and 76%.
As a reminder, the IC50 is the concentration that inhibits the measured activity by half. `CC(C)C[C@H](NC(=O)[C@@H](NC(=O)[C@@H](N)CNC(=O)c1[nH]c(=O)[nH]c(=O)c1F)C(C)C)C(=O)N[C@@H](Cc1ccccc1)[C@@H](O)C(=O)Nc1cccc(-c2nnn[nH]2)c1`: the IC50 at Beta-secretase 1 [4] turned out to be 6.5 nM.
For the compound `CC(C)C[C@H](NC(=O)[C@@H](NC(=O)[C@@H](N)CNC(=O)c1cc(O)nc(O)n1)C(C)C)C(=O)N[C@@H](Cc1ccccc1)[C@@H](O)C(=O)Nc1cccc(C(=O)O)c1`, the inhibition on Beta-secretase 1 [1] was determined as 90%; on Beta-secretase 1 [2], 54%; at Beta-secretase 1 [3], 46%.
On the same counts, the results for `CC(C)C[C@H](NC(=O)[C@@H](NC(=O)[C@@H](N)CNC(=O)c1ccc(O)cc1O)C(C)C)C(=O)N[C@@H](Cc1ccccc1)[C@@H](O)C(=O)Nc1cccc(C(=O)O)c1` are 86%, 59% and 20%.
Consider `CC(C)[C@H](NC(=O)[C@@H](N)CNC(=O)c1[nH]c(=O)[nH]c(=O)c1F)C(=O)N[C@@H](CC1CCCCC1)C(=O)N[C@@H](Cc1ccccc1)[C@@H](O)C(=O)Nc1cccc(-c2nn[nH]n2)c1`, for which the inhibition at Beta-secretase 1 [1] worked out at 100%; at Beta-secretase 1 [2], 97%; against Beta-secretase 1 [3], 84%.
On the same counts, the results for `CC(C)[C@H](NC(=O)[C@@H](N)CNC(=O)c1cc(O)ccc1O)C(=O)N[C@@H](CC1CCCCC1)C(=O)N[C@@H](Cc1ccccc1)[C@@H](O)C(=O)Nc1cccc(-c2nn[nH]n2)c1` are 99%, 92% and 69%.
The like results for `CC(C)[C@H](NC(=O)[C@@H](N)CNC(=O)c1nn[nH]n1)C(=O)N[C@@H](CC1CCCCC1)C(=O)N[C@@H](Cc1ccccc1)[C@@H](O)C(=O)Nc1cccc(-c2nn[nH]n2)c1` were, in that order, 100%, 98% and 59%.
On to `CC(C)C[C@H](NC(=O)[C@@H](NC(=O)[C@@H](N)CNC(=O)c1cccc(O)c1)C(C)C)C(=O)N[C@@H](Cc1ccccc1)[C@@H](O)C(=O)Nc1cccc(C(=O)O)c1`, for which the inhibition on Beta-secretase 1 [1] was determined as 91%; on Beta-secretase 1 [2], 49%; on Beta-secretase 1 [3], 57%.
As for `CC(C)C[C@H](NC(=O)[C@@H](NC(=O)[C@@H](N)CNC(=O)c1cc(O)ccc1O)C(C)C)C(=O)N[C@@H](Cc1ccccc1)[C@@H](O)C(=O)Nc1cccc(-c2nn[nH]n2)c1`, the inhibition at Beta-secretase 1 [1] is 99%; on Beta-secretase 1 [2], 93%; against Beta-secretase 1 [3], 65%.
As for `CC(C)[C@H](NC(=O)[C@@H](N)CNC(=O)c1nnn[nH]1)C(=O)N[C@@H](CC1CCCCC1)C(=O)N[C@@H](Cc1ccccc1)[C@@H](O)C(=O)Nc1cccc(-c2nnn[nH]2)c1`, the IC50 at Beta-secretase 1 [4] amounted to 3.3 nM.
Turning to `CC(C)C[C@H](NC(=O)[C@@H](NC(=O)[C@@H](N)CNC(=O)c1ccccc1O)C(C)C)C(=O)N[C@@H](Cc1ccccc1)[C@@H](O)C(=O)Nc1cccc(C(=O)O)c1`, the inhibition amounted to 75% at Beta-secretase 1 [1] and 29% on Beta-secretase 1 [3].
On to `CC(C)C[C@H](NC(=O)[C@@H](NC(=O)[C@@H](N)CNC(=O)c1nc(O)nc(O)c1I)C(C)C)C(=O)N[C@@H](Cc1ccccc1)[C@@H](O)C(=O)Nc1cccc(C(=O)O)c1`, for which the results for the inhibition on Beta-secretase 1 [1], at Beta-secretase 1 [2] and against Beta-secretase 1 [3] were 99%, 72% and 73%, respectively.
For `CC(C)C[C@H](NC(=O)[C@@H](NC(=O)[C@@H](N)CNC(=O)c1cc(O)ccc1O)C(C)C)C(=O)N[C@@H](Cc1ccccc1)[C@@H](O)C(=O)Nc1cccc(C(=O)O)c1`, the inhibition is 98% at Beta-secretase 1 [1], 84% at Beta-secretase 1 [2] and 58% on Beta-secretase 1 [3].
`CC(C)C[C@H](NC(=O)[C@@H](NC(=O)[C@@H](N)CNC(=O)c1cc[nH]c1)C(C)C)C(=O)N[C@@H](Cc1ccccc1)[C@@H](O)C(=O)Nc1cccc(C(=O)O)c1`: on Beta-secretase 1 [1], the inhibition was 69%.
Same read-out and setting: the value for `CC(C)C[C@H](NC(=O)[C@@H](NC(=O)[C@@H](N)CNC(=O)[C@@H]1CC(=O)NC(=O)N1)C(C)C)C(=O)N[C@@H](Cc1ccccc1)[C@@H](O)C(=O)Nc1cccc(C(=O)O)c1` was 40%.
In the case of `CC(C)C[C@H](NC(=O)[C@@H](NC(=O)[C@@H](N)CNC(=O)c1ccoc1)C(C)C)C(=O)N[C@@H](Cc1ccccc1)[C@@H](O)C(=O)Nc1cccc(C(=O)O)c1`, the values for the inhibition at Beta-secretase 1 [1], at Beta-secretase 1 [2] and against Beta-secretase 1 [3] were 82%, 38% and 4%, respectively.
In the case of `CC(C)C[C@H](NC(=O)[C@@H](NC(=O)[C@@H](N)CNC(=O)[C@H]1CC(=O)NC(=O)N1)C(C)C)C(=O)N[C@@H](Cc1ccccc1)[C@@H](O)C(=O)Nc1cccc(C(=O)O)c1`, at Beta-secretase 1 [1], the inhibition was 13%.
Regarding `CC(C)C[C@H](NC(=O)[C@@H](NC(=O)[C@@H](N)CNC(=O)c1nn[nH]n1)C(C)C)C(=O)N[C@@H](Cc1ccccc1)[C@@H](O)C(=O)Nc1cccc(-c2nn[nH]n2)c1`, the inhibition at Beta-secretase 1 [1] was 100%; at Beta-secretase 1 [2], 98%; on Beta-secretase 1 [3] it was 66%.
On the same counts, the results for `CC(C)C[C@H](NC(=O)[C@@H](NC(=O)[C@@H](N)CNC(=O)c1cccc(O)c1O)C(C)C)C(=O)N[C@@H](Cc1ccccc1)[C@@H](O)C(=O)Nc1cccc(C(=O)O)c1` are 89%, 75% and 0%.
For `CC(C)[C@H](NC(=O)[C@@H](N)CNC(=O)c1[nH]c(=O)[nH]c(=O)c1F)C(=O)N[C@@H](CC1CCCCC1)C(=O)N[C@@H](Cc1ccccc1)[C@@H](O)C(=O)Nc1cccc(-c2nnn[nH]2)c1`, the 50% inhibitory concentration (IC50) on Beta-secretase 1 [4] turned out to be 5.6 nM.
With `CC(C)C[C@H](NC(=O)[C@@H](NC(=O)[C@@H](N)CNC(=O)c1[nH]c(=O)[nH]c(=O)c1F)C(C)C)C(=O)N[C@@H](Cc1ccccc1)[C@@H](O)C(=O)Nc1cccc(-c2nn[nH]n2)c1`, the inhibition at Beta-secretase 1 [1] is 100%; on Beta-secretase 1 [2], 98%; against Beta-secretase 1 [3], 63%.
